What was measured:
Assay type in all cases: in vivo
[1] = system: giant foxtail (Setaria faberii); assay: Test A preemergence, visual injury rating
Procedure, shortened: (§1)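 Compounds in non-phytotoxic solvent with surfactant applied as soil spray preemergence, or postemergence to plants 2-10 cm at one- to two-leaf stage, in loam/sand. After approximately 10 days in greenhouse, injury rated visually versus untreated controls, 0 (no effect) to 100 (complete control).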

kochia (Kochia scoparia) [2] = assay: Test A preemergence, visual injury rating
Procedure, shortened: as §1

[3] = system: ragweed (common ragweed, Ambrosia elatior); assay: Test A preemergence, visual injury rating
Procedure, shortened: as §1

[4] = system: Italian ryegrass (Lolium multiflorum); assay: Test A preemergence, visual injury rating
Procedure, shortened: as §1

[5] = system: pigweed (Amaranthus retroflexus); assay: Test A preemergence, visual injury rating
Procedure, shortened: as §1

[6] = system: barnyardgrass (Echinochloa crus-galli); assay: Test A preemergence, visual injury rating
Procedure, shortened: as §1

[7] = system: ducksalad (Heteranthera limosa); assay: Test B flooded paddy test, plant response rating; details: 250 g ai/ha; Flood; scale of 0 to 100 where 0 is no effect and 100 is complete control; 13 to 15 days
Procedure, shortened: (§2)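 Greenhouse pots flooded to 3 cm above soil at time of treatment received compound via the water, which stayed at that level.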

[8] = system: barnyardgrass (Echinochloa crus-galli); assay: Test B flooded paddy test, plant response rating; details: 250 g ai/ha; Flood; scale of 0 to 100 where 0 is no effect and 100 is complete control; 13 to 15 days
Procedure, shortened: as §2

[9] = system: sedge, umbrella (small-flower umbrella sedge, Cyperus difformis); assay: Test B flooded paddy test, plant response rating; details: 250 g ai/ha; Flood; scale of 0 to 100 where 0 is no effect and 100 is complete control; 13 to 15 days
Procedure, shortened: as §2

rice (Oryza sativa) = assay: Test B flooded paddy test, plant response rating; details: 250 g ai/ha; Flood; scale of 0 to 100 where 0 is no effect and 100 is complete control; 13 to 15 days
Procedure, shortened: as §2

[10] = system: giant foxtail (Setaria faberii); assay: Test A postemergence, visual injury rating
Procedure, shortened: as §1

kochia (Kochia scoparia) [11] = assay: Test A postemergence, visual injury rating
Procedure, shortened: as §1

[12] = system: ragweed (common ragweed, Ambrosia elatior); assay: Test A postemergence, visual injury rating
Procedure, shortened: as §1

[13] = system: Italian ryegrass (Lolium multiflorum); assay: Test A postemergence, visual injury rating
Procedure, shortened: as §1

[14] = system: galium (catchweed bedstraw, Galium aparine); assay: Test A postemergence, visual injury rating
Procedure, shortened: as §1

[15] = system: pigweed (Amaranthus retroflexus); assay: Test A postemergence, visual injury rating
Procedure, shortened: as §1

[16] = system: wheat (Triticum aestivum); assay: Test A postemergence, visual injury rating
Procedure, shortened: as §1

[17] = system: barnyardgrass (Echinochloa crus-galli); assay: Test A postemergence, visual injury rating; details: 0 to 100 scale, 0 is no effect, 100 is complete control, approximately 10 days
Procedure, shortened: as §1

corn (Zea mays) = assay: Test A postemergence, visual injury rating
Procedure, shortened: as §1

[18] = system: blackgrass (Alopecurus myosuroides); assay: Test A postemergence, visual injury rating
Procedure, shortened: as §1

[19] = 31 g ai/ha, 0 to 100 scale, 0 no effect, 100 complete control
[20] = 125 g ai/ha, 0 to 100 scale (0 no effect, 100 complete control)
[21] = 31 g ai/ha, 0 to 100 scale, 0 is no effect, 100 is complete control, approximately 10 days
[22] = 125 g ai/ha, 0 to 100 scale, 0 is no effect, 100 is complete control, approximately 10 days
[23] = 31 g ai/ha, 0 to 100 scale (0 no effect, 100 complete control)

| Structure (SMILES) | Plant response rating, Foxtail, Giant [1, 19] | Plant response rating, Kochia (kochia (Kochia scoparia) [2]; [19]) | Plant response rating, Ragweed [3, 19] | Plant response rating, Ryegrass, Italian [4, 19] | Plant response rating, Pigweed [5, 19] | Plant response rating, Barnyardgrass [6, 19] | Plant response rating, Ducksalad [7] | Plant response rating, Barnyardgrass [8] | Plant response rating, Sedge, Umbrella [9] | Plant response rating, Rice (rice (Oryza sativa)) | Foxtail, Giant plant response rating [10, 22] | Kochia plant response rating (kochia (Kochia scoparia) [11]; [22]) | Ragweed plant response rating [12, 22] | Ryegrass, Italian plant response rating [13, 22] | Galium plant response rating [14, 22] | Pigweed plant response rating [15, 22] | Wheat plant response rating [16, 22] | Barnyardgrass plant response rating ([17]; 31 g ai/ha) | Barnyardgrass plant response rating ([17]; 125 g ai/ha) | Corn plant response rating (corn (Zea mays); [22]) | other results |
| --- | --- | --- | --- | --- | --- | --- | --- | --- | --- | --- | --- | --- | --- | --- | --- | --- | --- | --- | --- | --- | --- |
| CCON=C(C)c1c(Br)cccc1Oc1ncc(Cl)cn1 [Compound 95] | 0 | 0 | 0 | 0 | 0 | 10 | 30 | 0 | 0 | 0 | 60 | 0 | 0 | 0 | 40 | 20 | 0 | 0 | 30 | 10 | Foxtail, Giant plant response rating [1, 20]: 50; Kochia plant response rating (kochia (Kochia scoparia) [2]; [20]): 0; Ragweed plant response rating [3, 20]: 0; Ryegrass, Italian plant response rating [4, 20]: 0; Pigweed plant response rating [5, 20]: 40; Barnyardgrass plant response rating [6, 20]: 70; Foxtail, Giant plant response rating [10, 21]: 0; Kochia plant response rating (kochia (Kochia scoparia) [11]; [21]): 0; Ragweed plant response rating [12, 21]: 0; Ryegrass, Italian plant response rating [13, 21]: 0; Galium plant response rating [14, 21]: 10; Pigweed plant response rating [15, 21]: 10; Wheat plant response rating [16, 21]: 0; Corn plant response rating (corn (Zea mays); [21]): 0; Blackgrass plant response rating [18, 21]: 0; Blackgrass plant response rating [18, 22]: 10 |
| N#CCc1ccccc1Oc1ncc(Cl)cn1 [Compound 140] | 0 | 0 | 0 | 10 | 0 | 0 | 0 | 0 | 0 | 0 | 0 | 30 | 0 | 0 | 0 | 20 | 0 | 0 | 0 | 0 | Plant response rating, Foxtail, Giant [1, 20]: 0; Plant response rating, Kochia (kochia (Kochia scoparia) [2]; [20]): 40; Plant response rating, Ragweed [3, 20]: 0; Plant response rating, Ryegrass, Italian [4, 20]: 10; Plant response rating, Pigweed [5, 20]: 10; Plant response rating, Barnyardgrass [6, 20]: 0; Foxtail, Giant plant response rating [10, 23]: 0; Kochia plant response rating (kochia (Kochia scoparia) [11]; [23]): 0; Ragweed plant response rating [12, 23]: 0; Ryegrass, Italian plant response rating [13, 23]: 0; Galium plant response rating [14, 23]: 0; Pigweed plant response rating [15, 23]: 0; Wheat plant response rating [16, 23]: 0; Corn plant response rating (corn (Zea mays); [23]): 0; Blackgrass plant response rating [18, 23]: 0; Blackgrass plant response rating [18, 22]: 0 |
